Data as given in patent US20070077305A1, “Biocompatible polymeric matrix and preparation thereof” (priority 2005, published 2007).

Experiment: In vitro diffusion test of film using Franz apparatus
Format: in vitro ADME
Conditions: after 24 h; from chitosan succinic acid film (DS about 60-80%); phosphate buffer pH 7.2, 32° C.
Experimental: The functionalized chitosan polymeric matrix was synthesized as previously described with a degree of substitution of about 60-80%. 500 mg of caffeine was added in 100 mL functionalized chitosan polymeric matrix solution (2.5%) and stirred during […]. Films were produce by applying 20 mL of the solution evenly onto Petri dishes and dried at room temperature for 24-48 h.
The film produced was subjected to an in vitro diffusion test using Franz apparatus, with an exposed surface area of 3.9 cm^2. Polydimethylsiloxan (Silastic®) membranes have been used as barrier and the receptor compartment (dissolution phase) was 1 L of 50 mM phosphate buffer (pH 7.2) at 32° C. At predetermined time intervals, the samples (5 mL aliquots) were analyzed at 272 nm for the determination of caffeine permeation.

SMILES: Cn1c(=O)c2c(ncn2C)n(C)c1=O [caffeine]
- amount of caffeine in the receptor compartment: 405 μg/cm^2
